Laboratory results published in patent publication US12077566B2, “Mutants of recombinant immunoregulatory protein of Ganoderma lucidum and applications thereof” (priority 2017, dated 2024).

How the values were obtained:
[1] = test system: rLZ-8 internalization in Hep G2 cells; assay: Inhibitor screening of rLZ-8 endocytosis; assay type: cell-based
Protocol: The rLZ-8 is labeled by an Alexa Fluor 568 fluorescent probe; then 10 μg/mL fluorescent labeled rLZ-8 acts on Hep G2 cells for 3 hours; whether the rLZ-8 enters the cell is observed with the ultrahigh resolution imaging system; and obtained images are reconstructed, fitted and further analyzed through an image analysis software of Imaris.
Inhibitors of different internalization ways are selected, respectively EIPA (macropinocytosis inhibitor), Wortmannin/LY294002 (P13K inhibitor), Nystatin+Progesterone (caveolae inhibitor) and Chlorpromazine (clathrin inhibitor); the inhibitors respectively act on the Hep G2 cells, and inhibitory effects of the inhibitors on rLZ-8 endocytosis are observed.

[2] = test system: human lung cancer A549 cells; assay: Orthotopic transplantation tumor model of human lung cancer A549 cells; conditions: after administration for 28 days;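 note: test animals were NOG mice aged 6-8 weeks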
Protocol: The human lung cancer A549 cell strain is selected. The NOG Mice of 6-8 weeks old are selected.
The DMEM containing 10% fetal bovine serum is selected for the human lung cancer A549 cells, and then is placed in the CO2 constant-temperature incubator at 37° C. for culturing. The A549 cells at the logarithmic phase are digested by pancreatin and thereafter washed with serum-free DMEM; the living cell concentration is adjusted to 1×10^8 cells per milliliter; 20 μL cell suspension is taken and inoculated at the lung of the NOG mice; two weeks later, the orthotopic transplantation tumor model of A549 lung cancer cells is constructed in the NOG mice.

[3] = test system: EGFR, c-Met, PDGFR, N-cadherin and LDLR; assay: Immunofluorescence co-localization of rLZ-8 with membrane receptors; assay type: cell-based
Protocol: Considering that the high internalization degree of the rLZ-8 may be caused by the internalization after binding with a receptor on the cytomembrane, the rLZ-8 and the receptor on the cytomembrane are screened. Relationships between the different receptors on the cytomembrane and the tLZ-8 are measured through an immunofluorescence method. Fluorescent labels are made respectively on antibodies of EGFR, c-Met, PDGFR, N-cadherin and LDLR, and co-localization situations thereof with the rLZ-8 are respectively observed.

Hep G2 cells = assay: Cell death after rLZ-8 internalization; assay type: cell-based; conditions: 100 μg/mL, 5 hours
Description: With the ultrahigh resolution imaging system, the whole change process of the cell after the internalization of the rLZ-8 is observed in real time; and, combined with the above researches, the reason why the rLZ-8 causes the tumor cell death is judged.

[4] = test system: human colon cancer SW480 cells; assay: Transplantation tumor model of human colon cancer SW480 cells; assay type: in vivo, BALB/c nude mice; conditions: after administration for 28 days
Protocol: The RPMI1640 medium containing 10% fetal bovine serum is selected for the human colon cancer SW480 cells, and then is placed in the CO2 constant-temperature incubator at 37° C. for culturing. The SW480 cells at the logarithmic phase are digested by pancreatin and thereafter washed with serum-free RPMI1640 medium; 2×10^6 cells are inoculated below the back skin of the BALB/c nude mice; after the tumor blocks for observation are formed and have the diameter larger than 0.5 cm, the mice are divided into groups randomly; and the transplantation tumor model of human colon cancer SW480 cells are constructed in the BALB/c nude mice.

[5] = target: EGFR extracellular domain (Homo sapiens, UniProt P00533); assay: Affinity test by surface plasmon resonance (Biacore T200, CM5 chip); assay type: binding; conditions: EGFR extracellular domain coupled on CM5 chip, analyte 4-256 nM
Protocol: The Biacore™ T200 equipment (a Surface Plasmon Resonance from GE Company) is selected. Through the surface plasma resonance technology, the affinity of the rLZ-8 and the mutants thereof to the EGFR extracellular domain is tested. The CM5 chip is adopted to serve as the affinity test chip.
The EGFR extracellular domain (with an amino acid sequence of 25-645) serves as the ligand for coupling; 1 mg EGFR freeze-dried powders are diluted with HEPES buffer solution to a concentration of 400 μg/mL and set aside. Three 1.5 mL EP tubes are prepared; 10 μL ligand are respectively added into the three tubes, then 90 μL 10 mM sodium acetate with different pH values of 4.5, 5.0 and 5.5 are respectively added into the tubes and are mixed completely and uniformly; and a final concentration of the ligand is 40 μg/mL. Moreover, 200 μL 50 mM sodium acetate is added into another 1.5 mL EP tube.
The ligand has a molecular weight of 70 kDa, the analyte (rLZ-8) has a molecular weight of 12.4 kDa. In theory, one rLZ-8 […] can bind with one EGFR, and thus the stoichiometric ratio Sm is equal to 1. Through the following equations, the coupling amount RL of the ligand is calculated.
Through the experimental experience, the optimal reagent coupling amount is set to be 3*RL, and the coupling amount is set to be 1700 RU. The EGFR extracellular domain is successively coupled on the CM5 chip. […]

[6] = test system: human liver cancer Hep G2 cells; conditions: for Mice weight after experiment: mouse, in vivo; for Mice tumor weight after experiment / Survival rate of mice after experiment: qd×28 i.v., rLZ-8 and mutants 0.5 mg/kg, sorafenib 50 mg/kg; for Survival rate of mice after experiment: 10 mice per group
Description: Two weeks later, the model mice are divided into groups randomly, and each group has 10 mice. The administration method is caudal vein injection, once a day, for consecutive 28 days (qd×28, i.v.). […] During the experiment, if the mouse dies, the dead mouse is weighted on the same day, and the tumor tissue is taken out to be weighted. For the living mouse after administration for 28 days, the mouse is killed, and then the tumor tissue is taken out to be weighted. The death time and death number of the mice in each group are recorded in detail; the survival conditions of the mice of the experimental groups and the control groups are analyzed, and the survival rate is calculated, wherein the survival rate is obtained through subtracting the death number of the mice from the total number of the mice, and then dividing the difference by the total number of the mice.

S180 = conditions: mouse; cited from earlier work
[7] = test system: transplanted liver cancer cells H22; conditions: mouse; cited from earlier work
[8] = test system: human breast cancer MCF7 cells; assay: Orthotopic transplantation tumor model of human breast cancer MCF7 cells; assay type: in vivo, BALB/c nude mice; conditions: after administration for 28 days
Protocol: One day before the experiment, 0.5 mg of 17ß estradiol sustained release tablet is embedded below the neck skin of the BALB/c nude mice.

Compound: CCN(c1nc(N)c(C(=O)NC(=N)N)nc1Cl)C(C)C [EIPA]
- Inhibitory effect on rLZ-8 internalization (in words) ([1]; Hep G2 cells): effectively inhibits the internalization of the rLZ-8

Compound: rLZ-8: recombinant immunoprotein of Ganoderma lucidum, sequence SEQ ID NO: 1, expressed in Pichia pastoris
- Mice survival rate after experiment [2]: 50%
- Mice tumor weight after experiment [2]: 0.60 ± 0.45 g
- Mice weight after experiment [2]: 20.8 ± 1.5 g
- Co-localization with other internalization-related membrane receptors (in words) [3]: no co-localization phenomenon
- Co-localization with the EGFR (in words) [3]: high-degree co-localization phenomenon
- Cell death (in words) (Hep G2 cells): shrinkage, burst and death of Hep G2 cells happen
- Mice tumor weight after experiment [4]: 1.94 ± 0.43 g
- Dissociation rate constant (koff) [5]: 0.000583 s⁻¹
- Ka [5]: 63400 M⁻¹ s⁻¹
- Mice weight after experiment [6]: 19.8 ± 1.4 g
- Mice tumor weight after experiment [6]: 0.62 ± 0.53 g
- Survival rate of mice after experiment [6]: 60%
- In vivo tumor growth (in words) (S180): can inhibit the in vivo growth
- In vivo tumor growth (in words) [7]: can inhibit the in vivo growth
- In vivo half-life period (in words) (In vivo half-life period): relatively short in vivo half-life period
- Mice tumor weight after experiment [8]: 0.74 ± 0.35 g

Compound: CNC(=O)c1cc(Oc2ccc(NC(=O)Nc3ccc(Cl)c(C(F)(F)F)c3)cc2)ccn1 [Sorafenib, sorafenib, reference compound]
- Mice weight after experiment [6]: 19.6 ± 1.6 g
- Mice tumor weight after experiment [6]: 0.82 ± 0.37 g
- Survival rate of mice after experiment [6]: 50%

Compound: mβCD
- Inhibition of internalization efficiency of the rLZ-8 [1]: 50%
